{
  "source": "patent US20220296616A1",
  "about": "“SHP1 AND SHP2 INHIBITORS AND THEIR METHODS OF USE” (Tiaki Therapeutics Inc., priority 2019, published 2022)",
  "key": {"[1]": {"system": "matrix remodeling genes (mmp9, mmp16, mmp12, mmp2, mmp14)", "assay": "Expression of matrix remodeling genes in organotypic cortical brain slice cultures", "type": "cell-based, mice", "protocol": "(§1) The treatment of organotypic cortical brain slice cultures from adult mice with Compound A for 48 h was associated with reductions in expression of matrix remodeling genes (mmp9, mmp16, mmp12; n=3-9, see FIG. 1A showing results of dosing of Compound A at 5 nM, 50 nM, 500 nM, and 5 μM) and total MMP12 protein (n=3-6, see FIG. 1B showing results of dosing of Compound A at 5 nM, 50 nM, 500 nM, and 5 μM).\n(§2) The treatment of organotypic cortical brain slice cultures from adult mice with Compound B for 48 h was associated with reductions in expression of cytokine genes (egfr, i16ra, csf1r, illr1, plekho2; n=3, see FIG. 3A showing results of dosing of Compound B at 2 μM, and 20 μM) and matrix remodeling genes (mmp12, mmp2, mmp16, mmp14; n=3, see FIG. 3B showing results of dosing of Compound B at 2 μM, and 20 μM).\n(§3) The treatment of organotypic brain mice cultures from adult mice with Compound C for 72 h was associated with reductions in expression of cytokine genes (egfr, i16ra, csf1r, plekho2; n=2, See FIG. 5A showing results of dosing of Compound C at 0.1 μM, 0.3 μM, and 10 μM), matrix remodeling genes (mmp12, mmp16; n=2, See FIG. 5B for results of dosing of compound C at 0.1 μM, 0.3 μM, and 10 μM), and astrocyte genes (egfr, ai464131, gdpd2, adh1l1; n=2, See FIG. 5C for results of dosing of compound C at 0.1 μM, 0.3 μM, and 10 μM), and increases in expression of neuronal marker genes (tbr1, dlx1, slc17a6, islr2; n=2, See FIG. 5D for results of dosing of compound C at 0.1 μM, 0.3 μM, and 10 μM)."}, "IL-33": {"system": "IL-33", "assay": "Pro-inflammatory cytokine IL-33 in organotypic cortical slice cultures", "type": "cell-based, mice", "details": "48 h, 50 nM, 500 nM, 5 μM, FIG. 2B", "protocol": "(§4) The treatment of organotypic cortical slice cultures with Compound A for 48 h was associated with reductions in expression of cytokine genes (cx3cl1, tgfbr2, i14ra, tgfb1, tnfrsf10b, csf1r, egfr, fit1, flt4, ccl12; n=3-9, see FIG. 2A showing results of dosing of Compound A at 5 nM, 50 nM, 500 nM, and 5 μM) and pro-inflammatory cytokines like IL-33 (n=3-6, see FIG. 2B showing results of dosing of Compound A at 50 nM, 500 nM, and 5 μM)."}, "MMP12 protein": {"system": "MMP12 protein", "assay": "Total MMP12 protein in organotypic cortical brain slice cultures", "type": "cell-based", "details": "organotypic cortical brain slice cultures from adult mice, 48 h, 5 nM, 50 nM, 500 nM, 5 μM; significant dose-dependence; FIG. 1B", "protocol": "as §1"}, "cytokine genes": {"system": "cytokine genes", "assay": "Expression of cytokine genes in organotypic cortical slice cultures", "type": "cell-based, mice", "protocol": "as §4, §2, §3"}, "neuronal marker genes": {"system": "neuronal marker genes", "assay": "Expression of neuronal marker genes in organotypic cortical brain slice cultures", "type": "cell-based, mice", "protocol": "(§5) The treatment of organotypic cortical brain slice cultures from adult mice with Compound B for 48 h was associated with reductions in expression of astrocyte marker genes (egfr, AI464131, Itga7, Gdpd2, Sox9, Aldh1l1, Entpd2; n=3, see FIG. 4A showing results of dosing of Compound B at 2 μM, and 20 μM) and increases in expression of neuronal marker genes (tbr1, Dlx1, Slc17a6, Islr2; n=3, see FIG. 4B showing results of dosing of Compound B at 2 μM, and 20 μM).\nas §3"}, "astrocyte marker genes": {"system": "astrocyte marker genes", "assay": "Expression of astrocyte marker genes in organotypic cortical brain slice cultures", "type": "cell-based, mice", "protocol": "as §5, §3"}},
  "data": [
    {"molecule": "Cc1nc(N2CCC3(CC2)CO[C@@H](C)[C@H]3N)c(CO)nc1-c1cccc(Cl)c1Cl", "note": "[Compound A]", "values": [
      {"measurement": "expression of matrix remodeling genes (mmp9, mmp16, mmp12)", "setting": "[1]; organotypic cortical brain slice cultures from adult mice, 48 h, 5 nM, 50 nM, 500 nM, 5 μM, significant dose-dependence, FIG. 1A", "value": "reductions"},
      {"measurement": "expression of pro-inflammatory cytokines like IL-33", "setting": "IL-33", "value": "reductions"},
      {"measurement": "total MMP12 protein", "setting": "MMP12 protein", "value": "reductions"},
      {"measurement": "expression of cytokine genes (cx3cl1, tgfbr2, i14ra, tgfb1, tnfrsf10b, csf1r, egfr, fit1, flt4, ccl12)", "setting": "cytokine genes; organotypic cortical slice cultures, 48 h, 5 nM, 50 nM, 500 nM, 5 μM, FIG. 2A", "value": "reductions"}
    ]},
    {"molecule": "O=S(=O)(O)c1ccc2cc(/N=N/c3cc(S(=O)(=O)O)c4cccnc4c3O)ccc2c1", "note": "[Compound B]", "values": [
      {"measurement": "expression of matrix remodeling genes (mmp12, mmp2, mmp16, mmp14)", "setting": "[1]; organotypic cortical brain slice cultures from adult mice, 48 h, 2 μM and 20 μM, FIG. 3B", "value": "reductions"},
      {"measurement": "expression of cytokine genes (egfr, i16ra, csf1r, illr1, plekho2)", "setting": "cytokine genes; organotypic cortical brain slice cultures from adult mice, 48 h, 2 μM and 20 μM, FIG. 3A", "value": "reductions"},
      {"measurement": "expression of neuronal marker genes (tbr1, Dlx1, Slc17a6, Islr2)", "setting": "neuronal marker genes; organotypic cortical brain slice cultures from adult mice, 48 h, 2 μM and 20 μM, FIG. 4B", "value": "increases"},
      {"measurement": "expression of astrocyte marker genes (egfr, AI464131, Itga7, Gdpd2, Sox9, Aldh1l1, Entpd2)", "setting": "astrocyte marker genes; organotypic cortical brain slice cultures from adult mice, 48 h, 2 μM and 20 μM, FIG. 4A", "value": "reductions"}
    ]},
    {"molecule": "CC1(N)CCN(c2cnc3c(-c4cccc(Cl)c4Cl)n[nH]c3n2)CC1", "note": "[Compound C]", "values": [
      {"measurement": "expression of matrix remodeling genes (mmp12, mmp16)", "setting": "[1]; organotypic brain cultures from adult mice, 72 h, 0.1 μM, 0.3 μM, 10 μM, FIG. 5B", "value": "reductions"},
      {"measurement": "expression of cytokine genes (egfr, i16ra, csf1r, plekho2)", "setting": "cytokine genes; organotypic brain cultures from adult mice, 72 h, 0.1 μM, 0.3 μM, 10 μM, FIG. 5A", "value": "reductions"},
      {"measurement": "expression of neuronal marker genes (tbr1, dlx1, slc17a6, islr2)", "setting": "neuronal marker genes; organotypic brain cultures from adult mice, 72 h, 0.1 μM, 0.3 μM, 10 μM, FIG. 5D", "value": "increases"},
      {"measurement": "expression of astrocyte genes (egfr, ai464131, gdpd2, adh1l1)", "setting": "astrocyte marker genes; organotypic brain cultures from adult mice, 72 h, 0.1 μM, 0.3 μM, 10 μM, FIG. 5C", "value": "reductions"}
    ]}
  ]
}
